Bridge positions count the residues as written; N and C are the ends. Peptide text beside a SMILES is read from it.
What was measured:
Format in all cases: in vivo, mouse
Male ICR mice [1] = assay: Tail suspension test (TST); settings: 750 pmole i.c.v., 30 min before test, 5 min recording
Protocol: We performed mouse behavioral experiments in accordance with our previous study. Male ICR mice (n = 199 in total) aged 5 weeks old were purchased from Shimizu Laboratory Supplies (Kyoto, Japan) and maintained in an animal facility for 7–12 days. They had free access to food and water and were kept in a 12-h light/dark cycle (08:00–20:00). Experiments were carried out between 11:00 and 17:00 in a quiet and air-conditioned experimental room, to which mice were habituated for 30–60 min before each experiment. Animal experiments were performed in accordance with the guidelines of the Physiological Society of Japan and were approved by the Committee for Animal Experiments of Kurashiki University of Science and the Arts. Peptides were dissolved in phosphate-buffered saline (PBS). Peptides were injected intracerebroventricularly (i.c.v.) 30 min before behavioral tests (typically 5 μL/mouse), according to a previous study. The mouse was placed into an anesthetizing jar, to which isoflurane (0.2 mL) was added immediately before. After confirming that the mouse was deeply anesthetized we injected the peptide into the right cerebral ventricle over 30 seconds and the injection needle was kept for 1 min after the injection (i.c.v. coordinates: 0 mm caudal to bregma, 1.0 mm lateral to the midline, and 3.5 mm below the skull). The mouse was placed in a cage set on a heating pad (approximately 33°C) for a few minutes until it spontaneously started to move, and then it was put back into its home cage. Each animal was used only once, except for the wheel running test, which was carried out immediately after the elevated plus-maze.
The tail suspension test (TST) was performed in accordance with the method reported previously. The mouse was hung on a hook using adhesive tape placed 2 cm from the extremity of its tail 50 cm above a table. The amount of time spent immobile was recorded for 5 min.

Male ICR mice [2] = assay: Elevated plus-maze (EPM); settings: i.c.v., 5 min
Protocol: (§1) We performed mouse behavioral experiments in accordance with our previous study. Male ICR mice (n = 199 in total) aged 5 weeks old were purchased from Shimizu Laboratory Supplies (Kyoto, Japan) and maintained in an animal facility for 7–12 days. They had free access to food and water and were kept in a 12-h light/dark cycle (08:00–20:00). Experiments were carried out between 11:00 and 17:00 in a quiet and air-conditioned experimental room, to which mice were habituated for 30–60 min before each experiment. Animal experiments were performed in accordance with the guidelines of the Physiological Society of Japan and were approved by the Committee for Animal Experiments of Kurashiki University of Science and the Arts. Peptides were dissolved in phosphate-buffered saline (PBS). Peptides were injected intracerebroventricularly (i.c.v.) 30 min before behavioral tests (typically 5 μL/mouse), according to a previous study. The mouse was placed into an anesthetizing jar, to which isoflurane (0.2 mL) was added immediately before. […]
The elevated plus maze (EPM) apparatus consisted of four arms set in a cross pattern from a neutral central square (6 × 6 cm). […] The total number of entries to open arms and time spent in the open arms was measured. […]

Male ICR mice [3] = assay: Balance beam test; settings: i.c.v.; 10 mm and 6 mm beams, central 60 cm
Protocol: as §1
Motor coordination was assessed by measuring the ability to traverse a narrow beam to reach a familiar cage. […] The time required to cross the central 60 cm of the beam was measured.

SMILES	immobile time in TST (Male ICR mice [1])	number of entries to the open arms in EPM (Male ICR mice [2])	time spent in the open arms in EPM (Male ICR mice [2])	time required to cross the beam (Male ICR mice [3])
CC[C@H](C)[C@@H]1NC(=O)[C@H](CCCNC(=N)N)NC(=O)[C@H](CC(N)=O)NC(=O)[C@@H]2CSSC[C@@H](C(=O)NCC(=O)N[C@@H](CCCCN)C(=O)N[C@@H](CCCCN)C(N)=O)NC(=O)[C@H](CCCCN)NC(=O)[C@H](CCCCN)NC(=O)[C@H](Cc3c[nH]c4ccccc34)NC(=O)[C@H](CSSC[C@H](NC(=O)[C@H](CC(C)C)NC(=O)[C@H](C)N)C(=O)N[C@@H](CC(N)=O)C(=O)N2)NC(=O)[C@H](CCC(N)=O)NC(=O)[C@H](CC(C)C)NC(=O)[C@@H]2CCCN2C(=O)[C@H]([C@@H](C)CC)NC(=O)[C@H]([C@@H](C)CC)NC1=O [Peptide 3, TPN-LQ] (H-ALCNCNRIIIPLQCWKKCGKK-NH2; disulfide 3-14, 5-18; N-terminus and C-terminus assumed)	decreased the immobile time	decreased	decreased	
CC[C@H](C)[C@@H]1NC(=O)[C@H](CCCNC(=N)N)NC(=O)[C@H](CCCNC(=N)N)NC(=O)[C@H](CC(N)=O)NC(=O)[C@@H]2CSSC[C@@H](C(=O)NCC(=O)N[C@@H](CCCCN)C(=O)N[C@@H](CCCCN)C(N)=O)NC(=O)[C@H](CCCCN)NC(=O)[C@H](CCCCN)NC(=O)[C@H](Cc3c[nH]c4ccccc34)NC(=O)[C@H](CSSC[C@H](NC(=O)[C@H](CC(C)C)NC(=O)[C@H](C)N)C(=O)N[C@@H](CC(N)=O)C(=O)N2)NC(=O)[C@H](CCC(N)=O)NC(=O)[C@H](Cc2c[nH]cn2)NC(=O)[C@@H]2CCCN2C(=O)[C@H]([C@@H](C)CC)NC1=O [Peptide 2, TPN-RQ] (H-ALCNCNRRIIPHQCWKKCGKK-NH2; disulfide 3-14, 5-18)				longer
